Values of other authors as cited in US20010033859A1, “Transdermal therapeutic system for delivery of dofetilide” (priority 2000, published 2001).

Conditions: stated as a property of the drug substance; solvent system not given

CN(CCOc1ccc(NS(C)(=O)=O)cc1)CCc1ccc(NS(C)(=O)=O)cc1 [dofetilide, N-[4-[2-[methyl[2-[4-[(methylsulfonyl)amino]phenoxy]ethyl]amino]ethyl]phenyl]-methanesulfonamide]
partition coefficient: about 1
